Assay results as given in PMC12040169 (PLOS Biology, 2025).

experiment: in vitro; settings: human, hela cells, % viability

In order of falling viability at 28.5 h, 10 µM:
1. O=C(O)CCCC(=O)Nc1cc(C(=O)O)ccc1Cl [CBK267907]  116%
2. CCNC(=O)N[C@H]1CC[C@]2(C)CCC([C@H](C)C(=O)N3CCCC3)[C@H](O)[C@H]2[C@@H]1C (stereo partly shown) [CBK289456]  116%
3. COc1ccc2c(c1)C1(CC(=O)N(C)C1=O)C(=O)N2C (stereo not shown) [CBK075146]  115%
4. Cc1cc(CC(=O)N2CCN(CCNC(=O)C3CCCC3)CC2)no1 [CBK306376]  113%
5. O=C(Nc1ccc(Cl)cc1)N1CCN(CCCCc2ccc(F)cc2)CC1 [CBK017951C]  111%
6. Cc1ccc(C(=O)C(OC(=O)CN2C(=O)c3cccc([N+](=O)[O-])c3C2=O)c2ccccc2)cc1C (stereo not shown) [CBK265519]  109%
7. COC(CNC(=O)Cn1nnnc1CN1CCC(C)CC1)c1cccs1 (stereo not shown) [CBK306958]  109%
8. O=C(NC(NC(=O)c1ccccc1F)c1ccc2c(c1)OCO2)c1ccccc1F [CBK265742]  106%
9. COC(=O)c1c(NC(=O)C(Sc2ccccc2)c2ccccc2)sc2c1CCC(C(C)(C)C)C2 (stereo not shown) [CBK262603]  105%
10. CCCCc1cc(C[C@@H]2C[C@H](NS(C)(=O)=O)C2(C)C)no1 [CBK289702]  105%
11. C=CCNC(=O)C1CCCN(c2nc3ccccc3n2C)C1 (stereo not shown) [CBK282872]  105%
12. O=C(Cn1ccnc1)Nc1nc(-c2ccccc2F)cs1 [CBK281409]  104%
13. CC(C)C(=O)N1CCC(n2nc(C3CC3)ccc2=O)CC1 [CBK282351]  104%
14. Sc1nnc2sc3ccccc3n12 [CBK018156]  103%
15. CC(C)(C)c1ccc(C(=O)N2CC(C(=O)O)C2)cc1 [CBK008670]  101%
16. O=C(O)C[C@@H]1CCN(C(=O)C2CCCCC2)C[C@@H]1CC1=NCCc2ccccc21 [CBK289158]  101%
17. O=C(O)CCCCC/N=C1\CCc2ccccc2N1 [CBK286773]  100%
18. Oc1cccnc1CCc1ccccc1 [CBK026334C]  100%
19. O=C(O)c1ccc(N2CCN(CCO)CC2)c([N+](=O)[O-])c1 [CBK264911C]  100%
20. O=C(Nc1cccc(C(F)(F)F)c1)Nc1cccc(S(=O)(=O)N2CCOCC2)c1 [CBK267043]  99%
21. CCS(=O)(=O)N1CC2C3c4ccccc4C(c4ccccc43)C2C1 (stereo not shown) [CBK282328]  98.5%
22. OC(CN[C@H]1CC[C@](O)(c2ccc(Cl)cc2)CC1)c1ccccc1 (stereo partly shown) [CBK016206]  98.4%
23. CSCCCNC(=O)N1CCNC(=O)C1 [CBK155848]  98.3%
24. COc1cc(NC(=O)Cn2nc([N+](=O)[O-])c(Cl)c2C)c(OC)cc1Cl [CBK033535]  97.9%
25. NNC(=O)CNS(=O)(=O)c1ccccc1 [CBK261967]  97.9%
26. COc1cc(-c2nccnc2N2CCCN(C)CC2)cc(OC)c1OC [CBK037994]  97.8%
27. COc1ccc(CNC(=O)NC(=O)C2CCN(C(C)=O)CC2)c(OC)c1 [CBK034839]  96.9%
28. CCN1CCN(C(=O)CN(Cc2ccc(F)cc2)S(=O)(=O)c2ccccc2)CC1 [CBK266612]  96.8%
29. O=C(Oc1ccc(/C=N/NC(=O)C2COc3ccccc3O2)cc1)c1cccnc1 (stereo not shown) [CBK262811]  96.5%
30. Cc1n[nH]c(C)c1CNC(=O)C1(c2ccccc2F)CC1 [CBK283156]  96.4%
31. O=C(O)/C=C/c1cccc(-c2cncc(N3CCN(Cc4ccccn4)CC3)n2)c1 [CBK066085]  96%
32. O=C1c2ccccc2CN1c1ccccc1 [CBK113189]  95.9%
33. Nc1ccc(C(=O)Nc2nc3ccccc3s2)cc1 [CBK287608]  95.9%
34. COC(=O)[C@@H]1Cc2ncn(C(C)C)c2CN1S(=O)(=O)c1ccc([N+](=O)[O-])cc1 [CBK288985]  95.7%
35. O=C(COc1ccc(Br)cc1C(=O)O)NCCc1ccccc1 [CBK286796]  95.3%
36. Cn1ncc(N2CCC(CNC(=O)c3ccccc3Cl)C2)cc1=O (stereo not shown) [CBK306747]  95.2%
37. CCOC(=O)C1CCN(S(=O)(=O)c2ccc(Cl)s2)CC1 [CBK096109]  94.9%
38. COc1ccc(-c2nc(-c3ccc(C#N)cc3)cnc2N)cc1OC [CBK063885]  94.6%
39. O=S(=O)(Nc1nc(-c2sccc2Cl)cs1)c1cc(Cl)ccc1Cl [CBK014147]  94.2%
40. Cc1ccc(S(=O)(=O)N(C)CC(=O)NCc2nc(-c3ccccc3)no2)cc1 [CBK268524]  93.4%
41. c1ccc(-c2cc(CC3(NCC4CCCCC4)COC3)no2)nc1 [CBK289644]  93%
42. CC(=O)N(c1ccc2oc3c(c2c1)CCCC3)S(=O)(=O)c1ccc(C(=O)O)cc1 [CBK299808]  92.5%
43. CN(C)c1ccc(C=Nc2ccc(NC(=O)CCC(=O)O)cc2)cc1 [CBK296091]  92%
44. CCc1cc(S(=O)(=O)NC2CC(C)(C)NC(C)(C)C2)ccc1OC [CBK270097]  92%
45. CC(NC(=O)N1CCN(c2cc(C(F)(F)F)ccn2)CC1)c1ccccc1 (stereo not shown) [CBK162350]  91.7%
46. c1ccc(C2=Nn3c(Cn4nnc5ccccc54)nnc3SC2)cc1 [CBK268232]  91.7%
47. O=C(NCCN1CCC(O)(c2ccc(F)cc2)CC1)c1cccs1 [CBK283163]  91.5%
48. O=C(O)/C=C/C(=O)N(Cc1ccc2c(c1)OCO2)C1CC(=O)N(c2ccccc2)C1=O (stereo not shown) [CBK262786]  91.4%
49. CCOC(=O)CN1CCC(Oc2cncc(Oc3ccc(OC)c(OC)c3)n2)C1 (stereo not shown) [CBK084405]  91.3%
50. CSCCOc1nc2ccccc2nc1N1CCCC1 [CBK115770]  91.3%
51. O=C1CC2(CCN(C(=O)C3CCCC3)CC2)Oc2ccc(Cl)cc21 [CBK283625]  90.9%
52. O=C(COc1ccc(S(=O)(=O)NC2CCCCC2)cc1Cl)Nc1ccc2c(c1)OCO2 [CBK267615]  90.5%
53. O=C(C1CC1)N1CCC(Cn2nc(-c3ccccc3)ccc2=O)CC1 [CBK284115]  89.7%
54. Cc1cc2nc(-c3cc(NC(=O)c4ccc(C)c([N+](=O)[O-])c4)ccc3O)oc2cc1C [CBK262779]  89.1%
55. Cc1c(C(=O)NCC[S+](C)[O-])oc2c(C)cccc12 (stereo not shown) [CBK282511]  88.8%
56. N#Cc1c(C(F)(F)F)cc(-c2cccs2)nc1SCC(O)CN1CCSCC1 (stereo not shown) [CBK265947]  88.2%
57. CCOc1ccc(-c2ccc(C#N)c(=S)[nH]2)cc1 [CBK288470]  88.2%
58. Cc1ccccc1C1(O)CCN(CC(O)c2ccc3c(c2)CCC3)CC1 (stereo not shown) [CBK286329]  88%
59. COC(=O)c1sc(N2CCCC2)c(S(=O)(=O)C(C)C)c1N [CBK009463]  87.9%
60. Cc1nc(O)cc(C2CCN(C(=O)c3scc4c3CCCC4)CC2)n1 [CBK307452]  85.9%
61. COc1ccc(CCNC(=O)Cn2ccc(C3CCCNC3)n2)cc1 (stereo not shown) [CBK304444]  76.3%
62. C[C@@H](c1ccccc1)n1c(=O)[nH]c2ncc(-c3cncc4ccccc34)nc21 [CBK064726]  73.9%
63. O=C(CSc1nnc2ccc(-c3ccccc3)nn12)NCc1ccccc1 [CBK287677]  67.6%

same assay, conditions: human, hela cells, % viability, bulk resorufin, single well

For CN1C(=O)CC(c2ccccc2)Nc2ccccc21 (stereo not shown) [CBK086373C], the viability at 28.5 h, 10 µM was 103%.
